Laboratory results as given in patent publication US5859036A, “3,4-diarylthiazolin-2-one or -2-thione derivatives, their methods of preparation and their uses in their methods of preparation and their uses in therapeutics” (Laboratories UPSA, priority 1997, dated 1999).

Experiments:
COX-2 = molecular target: T1, COX-2 (Ovis aries, UniProt P79208); experiment: Inhibition of COX-2 enzymatic activity (purified enzyme from ewe placenta, PGE2 by EIA); type: biochemical; details: for IC50: 1 U COX-2, 10 min preincubation at 25° C., 4 μM arachidonic acid, 5 min, n=1 to 4; for Selectivity COX-1/COX-2 ratio: ratio of IC50 COX-1 / IC50 COX-2
T1 construct: purified enzyme from ewe placenta; from tissue; host or cells: ewe placenta
T1 sequence (P79208 17-603): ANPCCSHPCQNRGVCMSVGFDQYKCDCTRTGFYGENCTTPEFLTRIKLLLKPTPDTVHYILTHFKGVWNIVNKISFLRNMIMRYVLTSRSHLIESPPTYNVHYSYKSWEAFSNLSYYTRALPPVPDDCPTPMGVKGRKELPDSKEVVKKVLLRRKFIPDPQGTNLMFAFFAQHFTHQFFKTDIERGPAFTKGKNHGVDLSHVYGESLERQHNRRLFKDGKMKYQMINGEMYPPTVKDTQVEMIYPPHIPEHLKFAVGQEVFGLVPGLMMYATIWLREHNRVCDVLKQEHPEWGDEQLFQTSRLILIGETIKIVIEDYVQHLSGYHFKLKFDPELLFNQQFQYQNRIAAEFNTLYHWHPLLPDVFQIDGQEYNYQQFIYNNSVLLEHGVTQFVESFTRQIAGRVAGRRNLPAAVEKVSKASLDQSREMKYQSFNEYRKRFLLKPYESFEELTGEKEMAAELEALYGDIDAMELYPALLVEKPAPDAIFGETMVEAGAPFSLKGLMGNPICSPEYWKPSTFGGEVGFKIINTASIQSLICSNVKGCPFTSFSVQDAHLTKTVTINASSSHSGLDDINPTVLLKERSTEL
Method: (§1) Inhibition of the COX-1 and COX-2 enzymatic activities The molecule studied is preincubated for 10 minutes at 25° C. with 2 U of COX-1 (purified enzyme from ram seminal vesicles) or 1 U of COX-2 (purified enzyme from ewe placenta). Arachidonic acid (6 μM for COX-1,4 μM for COX-2) is added to the reaction medium and incubation is carried out for 5 minutes at 25° C. When incubation has ended, the enzymatic reaction is stopped by the addition of 1 N HCl and the PGE2 produced is determined by EIA. The results are expressed in the form of IC50, concentration in […] corresponding to 50% inhibition of the maximal enzymatic activity upon COX-1 and COX-2 (n=1 to 4 determinations).

COX-1 = molecular target: T2, COX-1 (Ovis aries, UniProt P05979); experiment: Inhibition of COX-1 enzymatic activity (purified enzyme from ram seminal vesicles, PGE2 by EIA); type: biochemical; details: 2 U COX-1, 10 min preincubation at 25° C., 6 μM arachidonic acid, 5 min; n=1 to 4
T2 construct: purified enzyme from ram seminal vesicles; from tissue; host or cells: ram seminal vesicles
T2 sequence (P05979 25-600): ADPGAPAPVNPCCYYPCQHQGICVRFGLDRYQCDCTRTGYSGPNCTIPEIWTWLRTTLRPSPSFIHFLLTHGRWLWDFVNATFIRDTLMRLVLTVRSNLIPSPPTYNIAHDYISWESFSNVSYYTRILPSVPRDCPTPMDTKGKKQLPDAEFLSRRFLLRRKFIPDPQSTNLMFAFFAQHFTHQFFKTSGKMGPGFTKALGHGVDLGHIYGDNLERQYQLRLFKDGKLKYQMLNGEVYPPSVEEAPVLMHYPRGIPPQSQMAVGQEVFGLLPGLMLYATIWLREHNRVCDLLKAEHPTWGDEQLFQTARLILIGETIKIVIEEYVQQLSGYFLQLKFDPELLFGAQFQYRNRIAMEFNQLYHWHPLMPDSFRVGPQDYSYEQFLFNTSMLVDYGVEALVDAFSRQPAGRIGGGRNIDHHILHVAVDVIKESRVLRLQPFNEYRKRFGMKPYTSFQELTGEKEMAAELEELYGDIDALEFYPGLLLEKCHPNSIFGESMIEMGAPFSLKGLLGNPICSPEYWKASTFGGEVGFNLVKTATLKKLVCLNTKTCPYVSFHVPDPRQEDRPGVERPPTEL
Method: as §1

[1] = Analgesic activity, test of arthritis with kaolin in rats; type: in vivo; details: 0.5 h; rat, oral, 30 min after intra-articular 10% kaolin; dose inducing 50% decrease of the maximal quotations of control
Method: (§2) The anti-inflammatory activity of the compounds of the Examples has been evaluated according to the method of oedema with carrageenan and the analgesic activity has been evaluated according to the method of arthritis with kaolin.
The analgesic activity is evaluated in rats by the test of arthritis with kaolin. Thirty minutes after intra-articular administration of an aqueous 10% suspension of kaolin, the product is administered orally at a rate of 1 ml/ 100 g (n=10 animals per dose). The results are expressed in the form of ED50, the dose in mg/kg which induces 50% decrease of the maximal quotations obtained in the control batch, calculated by linear regression.

[2] = Anti-inflammatory activity, test of oedema with carrageenan in rats; type: in vivo; details: rat, oral, product 1 h before plantar injection of 2% carrageenan; dose inducing 50% of the maximal decrease of oedema volume; read-out: Anti-inflammatory Activity ID50
Method: as §2
Anti-inflammatory activity:
The anti-inflammatory activity is evaluated in rats by the test of oedema with carrageenan. The product is administered orally at a rate of 2.5 ml/100 g (n=6 animals per dose) 2 hours 30 minutes after a water overload taken orally (2.5 ml/100 g). One hour after administration of the product, the oedema is induced by plantar subcutaneous injection of aqueous 2% carrageenan solution. The results are expressed as ID50, dose in mg/kg, calculated by linear regression, which induces 50% of the maximal decrease of the volume of the oedema obtained from each product tested.

Row | SMILES | IC50 (COX-2) [nM] | Selectivity COX-1/COX-2 ratio (COX-2) | IC50 (COX-1) [nM] | ED50 [1] [mg/kg] | ED50 [2] [mg/kg]
1 | CS(=O)(=O)c1ccc(-c2csc(=S)n2-c2cccc(Cl)c2)cc1 [Example 9] | 3340 | 30 | 100000 | – | –
2 | NS(=O)(=O)c1ccc(-c2csc(=S)n2-c2ccc(F)cc2)cc1 [Example 13] | 930 | 34 | 32000 | – | –
3 | COc1ccc(-n2c(-c3ccc(S(N)(=O)=O)cc3)csc2=S)cc1Cl [Example 20] | 2000 | 9 | 17600 | – | –
4 | NS(=O)(=O)c1ccc(-c2csc(=S)n2-c2cccc(F)c2)cc1 [Example 29] | 650 | 396 | 258000 | – | –
5 | NS(=O)(=O)c1ccc(-c2csc(=S)n2-c2ccc(F)c(F)c2)cc1 [Example 30] | 210 | 94 | 19800 | – | –
6 | NS(=O)(=O)c1ccc(-c2csc(=O)n2-c2ccc(Cl)c(Cl)c2)cc1 [Example 39] | 140 | 14 | 1940 | – | –
7 | NS(=O)(=O)c1ccc(-c2csc(=O)n2-c2cccc(F)c2)cc1 [Example 45] | 240 | 1367 | 335000 | 1.3 | 2.8
8 | CS(=O)(=O)c1ccc(-c2csc(=O)n2-c2ccc(Cl)cc2)cc1 [Example 46] | 570 | 286 | 163000 | – | –
